Experimental data as given in ChEMBL document CHEMBL1139487, “Discovery of corticotropin releasing factor 2 receptor selective sauvagine analogues for treatment of skeletal muscle atrophy” (J Med Chem, 2005).

Key:
[1] = target: T1, Corticotropin-releasing factor receptor 1 (Mus musculus) (UniProt P35347); assay: In vitro agonistic activity against mouse corticotropin releasing factor 1 receptor; assay type: functional
T1 sequence (whole entry): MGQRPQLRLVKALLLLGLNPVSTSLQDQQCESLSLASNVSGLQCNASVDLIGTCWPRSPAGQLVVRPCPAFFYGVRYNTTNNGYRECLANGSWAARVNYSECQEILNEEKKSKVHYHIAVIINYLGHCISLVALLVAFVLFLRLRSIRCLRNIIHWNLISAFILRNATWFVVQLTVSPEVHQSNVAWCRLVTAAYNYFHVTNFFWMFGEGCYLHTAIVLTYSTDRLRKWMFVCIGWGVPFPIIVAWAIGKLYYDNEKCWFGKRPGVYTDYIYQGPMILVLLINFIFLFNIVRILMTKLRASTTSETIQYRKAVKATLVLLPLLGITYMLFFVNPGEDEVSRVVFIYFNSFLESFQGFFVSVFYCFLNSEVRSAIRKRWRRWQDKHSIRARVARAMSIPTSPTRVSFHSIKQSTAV

Mus musculus [2] = assay: In vivo percentage inhibition against casting induced tibialis anterior mass loss in mouse at a dosage of 300 ug/kg/day; assay type: functional; conditions: read-out: Inhibition
[3] = target: Corticotropin-releasing factor receptor 2 (Mus musculus) (UniProt Q60748); assay: In vitro agonistic activity against mouse corticotropin releasing factor 2 receptor; assay type: functional
Mus musculus [4] = assay: In vivo percentage inhibition against casting induced tibialis anterior mass loss in mouse at a dosage of 100 ug/kg/day; assay type: functional
Mus musculus [5] = species on record: Mus musculus; assay: Selectivity ratio of EC50s for mouse corticotropin releasing factor receptors 1 and 2
Mus musculus [6] = assay: In vivo percentage inhibition against casting induced tibialis anterior mass loss in mouse at a dosage of 30 ug/kg/day; assay type: functional
[7] = target: T2, Corticotropin-releasing factor receptor 1 (Mus musculus, UniProt P35347); assay: In vitro effective concentration for mouse corticotropin releasing factor 1 receptor
T2 sequence (P35347 whole entry): T1 sequence (whole entry)

Mus musculus [8] = assay: In vivo percentage inhibition against casting induced tibialis anterior mass loss in mouse at a dosage of 10 ug/kg/day; assay type: functional
[9] = target: Corticotropin-releasing factor receptor 2 (Mus musculus, UniProt Q60748); assay: In vitro effective concentration for mouse corticotropin releasing factor 2 receptor
Sequence of Corticotropin-releasing factor receptor 2 (Q60748 whole entry): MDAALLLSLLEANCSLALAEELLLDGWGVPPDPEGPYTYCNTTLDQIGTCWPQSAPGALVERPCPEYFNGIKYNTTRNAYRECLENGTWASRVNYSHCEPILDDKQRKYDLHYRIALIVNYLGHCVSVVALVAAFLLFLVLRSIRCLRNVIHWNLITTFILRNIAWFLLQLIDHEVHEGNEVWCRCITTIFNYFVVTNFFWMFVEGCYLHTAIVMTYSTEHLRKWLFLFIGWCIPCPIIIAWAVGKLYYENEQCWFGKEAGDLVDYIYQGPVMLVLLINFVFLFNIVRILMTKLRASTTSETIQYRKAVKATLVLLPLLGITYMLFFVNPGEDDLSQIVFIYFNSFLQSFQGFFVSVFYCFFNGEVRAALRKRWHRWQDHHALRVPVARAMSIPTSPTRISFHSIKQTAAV

Sequence of Corticotropin-releasing factor receptor 2 (Mus musculus) (Q60748 whole entry): as above

CC[C@H](C)[C@H](NC(=O)[C@@H](NC(=O)[C@H](CC(=O)O)NC(=O)[C@H](CC(C)C)NC(=O)[C@H](CC(C)C)NC(=O)[C@H](CC(C)C)NC(=O)[C@H](CCCN=C(N)N)NC(=O)[C@H](CC(N)=O)NC(=O)[C@H](CC(N)=O)NC(=O)[C@H](C)NC(=O)[C@H](C)NC(=O)[C@H](CCC(N)=O)NC(=O)[C@H](CCC(N)=O)NC(=O)[C@H](CCCCN)NC(=O)[C@H](CCC(=O)O)NC(=O)[C@H](CCCCN)NC(=O)[C@H](CCC(=O)O)NC(=O)[C@H](CCC(N)=O)NC(=O)[C@H](CCCCN)NC(=O)[C@H](CCC(=O)O)NC(=O)[C@@H](NC(=O)[C@H](CCC(=O)O)NC(=O)[C@@H](NC(=O)[C@H](CCSC)NC(=O)[C@H](CCCCN)NC(=O)[C@H](CCCN=C(N)N)NC(=O)[C@H](CC(C)C)NC(=O)[C@H](CC(C)C)NC(=O)[C@H](Cc1ccc(O)cc1)NC(=O)[C@@H](NC(=O)[C@@H]1CCCN1C(=O)[C@H](CC(C)C)NC(=O)[C@H](CC(=O)O)NC(=O)[C@@H](NC(=O)[C@H](CO)NC(=O)[C@@H](NC(=O)[C@@H]1CCCN1C(=O)[C@@H]1CCCN1C(=O)CNC(=O)[C@@H]1CCC(=O)N1)[C@@H](C)CC)[C@@H](C)CC)[C@@H](C)CC)[C@@H](C)CC)[C@@H](C)CC)[C@@H](C)O)C(=O)O
Emax [1]: 8% | inhibition in vivo at 0.3 mg/kg/day (Mus musculus [2]): 58% | Emax [3]: 100% | inhibition in vivo at 0.1 mg/kg/day (Mus musculus [4]): 38% | Selectivity (Mus musculus [5]): > 45 | inhibition in vivo at 0.03 mg/kg/day (Mus musculus [6]): 24%

CC[C@H](C)[C@H](NC(=O)[C@@H](NC(=O)[C@H](CC(=O)O)NC(=O)[C@H](CC(C)C)NC(=O)[C@H](CC(C)C)NC(=O)[C@H](CC(C)C)NC(=O)[C@H](CCCN=C(N)N)NC(=O)[C@H](CC(N)=O)NC(=O)[C@H](CC(N)=O)NC(=O)[C@H](C)NC(=O)[C@H](C)NC(=O)[C@H](CCC(N)=O)NC(=O)[C@H](CCC(N)=O)NC(=O)[C@H](CCCCN)NC(=O)[C@H](CCC(=O)O)NC(=O)[C@H](CCCCN)NC(=O)[C@H](CCC(=O)O)NC(=O)[C@H](CCC(N)=O)NC(=O)[C@H](CCCCN)NC(=O)[C@H](CCC(=O)O)NC(=O)[C@@H](NC(=O)[C@H](CCC(=O)O)NC(=O)[C@@H](NC(=O)[C@H](CCSC)NC(=O)[C@H](CCCCN)NC(=O)[C@H](CCCN=C(N)N)NC(=O)[C@H](CC(C)C)NC(=O)[C@H](CC(C)C)NC(=O)[C@H](CC(C)C)NC(=O)[C@@H](NC(=O)[C@@H]1CCCN1C(=O)[C@H](CC(C)C)NC(=O)[C@H](CC(=O)O)NC(=O)[C@@H](NC(=O)[C@H](CO)NC(=O)[C@@H](NC(=O)[C@@H]1CCCN1C(=O)[C@@H]1CCCN1C(=O)CNC(=O)[C@@H]1CCC(=O)N1)[C@@H](C)CC)[C@@H](C)CC)[C@@H](C)CC)[C@@H](C)CC)[C@@H](C)CC)[C@@H](C)O)C(=O)O
EC50 [7]: > 1 µM | Emax [1]: 72% | inhibition in vivo at 0.01 mg/kg/day (Mus musculus [8]): 10% | Emax [3]: 88% | inhibition in vivo at 0.1 mg/kg/day (Mus musculus [4]): 91% | Selectivity (Mus musculus [5]): > 64 | inhibition in vivo at 0.03 mg/kg/day (Mus musculus [6]): 66% | EC50 [9]: 0.0156 µM

CC[C@H](C)[C@H](NC(=O)[C@@H](NC(=O)[C@H](CC(=O)O)NC(=O)[C@H](CC(C)C)NC(=O)[C@H](CC(C)C)NC(=O)[C@H](CC(C)C)NC(=O)[C@H](CCCN=C(N)N)NC(=O)[C@H](CC(N)=O)NC(=O)[C@H](CC(N)=O)NC(=O)[C@H](C)NC(=O)[C@H](C)NC(=O)[C@H](CCC(N)=O)NC(=O)[C@H](CCC(N)=O)NC(=O)[C@H](CCCCN)NC(=O)[C@H](CCC(=O)O)NC(=O)[C@H](CCCCN)NC(=O)[C@H](CCC(=O)O)NC(=O)[C@H](CCC(N)=O)NC(=O)[C@H](CCCCN)NC(=O)[C@H](CCC(=O)O)NC(=O)[C@@H](NC(=O)[C@H](CCC(=O)O)NC(=O)[C@@H](NC(=O)[C@H](CCSC)NC(=O)[C@H](CCCCN)NC(=O)[C@H](CCCN=C(N)N)NC(=O)[C@H](CC(C)C)NC(=O)[C@H](CC(C)C)NC(=O)[C@H](Cc1ccc(O)cc1)NC(=O)[C@@H](NC(=O)[C@@H]1CCCN1C(=O)[C@H](CC(C)C)NC(=O)[C@H](CC(=O)O)NC(=O)[C@@H](NC(=O)[C@H](CO)NC(=O)[C@@H](NC(=O)[C@@H]1CCCN1C(=O)[C@@H]1CCCN1C(=O)CNC(=O)[C@@H]1CCC(=O)N1)[C@@H](C)CC)[C@@H](C)CC)[C@@H](C)O)[C@@H](C)CC)[C@@H](C)CC)[C@@H](C)O)C(=O)O
EC50 [7]: > 1 µM | Emax [1]: 48% | inhibition in vivo at 0.3 mg/kg/day (Mus musculus [2]): 59% | Emax [3]: 82% | inhibition in vivo at 0.1 mg/kg/day (Mus musculus [4]): 25% | Selectivity (Mus musculus [5]): > 55 | inhibition in vivo at 0.03 mg/kg/day (Mus musculus [6]): 3% | EC50 [9]: 0.0182 µM

CC[C@H](C)[C@H](NC(=O)[C@@H](NC(=O)[C@H](CC(=O)O)NC(=O)[C@H](CC(C)C)NC(=O)[C@H](CC(C)C)NC(=O)[C@H](CC(C)C)NC(=O)[C@H](CCCN=C(N)N)NC(=O)[C@H](CC(N)=O)NC(=O)[C@H](CC(N)=O)NC(=O)[C@H](C)NC(=O)[C@H](C)NC(=O)[C@H](CCC(N)=O)NC(=O)[C@H](CCC(N)=O)NC(=O)[C@H](CCCCN)NC(=O)[C@H](CCC(=O)O)NC(=O)[C@H](CCCCN)NC(=O)[C@H](CCC(=O)O)NC(=O)[C@H](CCC(N)=O)NC(=O)[C@H](CCCCN)NC(=O)[C@H](CCC(=O)O)NC(=O)[C@@H](NC(=O)[C@H](CCC(=O)O)NC(=O)[C@@H](NC(=O)[C@H](CCSC)NC(=O)[C@H](CCCCN)NC(=O)[C@H](CCCN=C(N)N)NC(=O)[C@H](CC(C)C)NC(=O)[C@H](CC(C)C)NC(=O)[C@H](CCC(N)=O)NC(=O)[C@H](Cc1ccccc1)NC(=O)[C@@H]1CCCN1C(=O)[C@H](CC(C)C)NC(=O)[C@H](CC(=O)O)NC(=O)[C@@H](NC(=O)[C@H](CO)NC(=O)[C@@H](NC(=O)[C@@H]1CCCN1C(=O)[C@@H]1CCCN1C(=O)CNC(=O)[C@@H]1CCC(=O)N1)[C@@H](C)CC)[C@@H](C)CC)[C@@H](C)CC)[C@@H](C)CC)[C@@H](C)O)C(=O)O
Emax [1]: 64% | inhibition in vivo at 0.3 mg/kg/day (Mus musculus [2]): 50% | Emax [3]: 100% | inhibition in vivo at 0.1 mg/kg/day (Mus musculus [4]): 46% | Selectivity (Mus musculus [5]): 62 | inhibition in vivo at 0.03 mg/kg/day (Mus musculus [6]): 58%
